Measurements as given in PubChem BioAssay (NCI).
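Results reflect a 48-hour exposure of cells in 96-well plates to compound at five concentrations. Here, GI50 denotes the concentration required for 50% inhibition of growth. The concentration for full growth arrest is given as TGI.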

These molecules were tested on HL-60(TB) leukemia (assay: NCI anticancer screen, dose series, 48 h).

SMILES	TGI
Clc1cc2c(cc1Cl)CC(NCCN1CCCC1)CC2 (centres undefined)	37.6 µM
[N-]=[N+]=CC(=O)c1ccccc1C#CCCc1ccccc1	32.9 µM
NCCSC(c1ccccc1)c1ccccc1	0.793 µM
COc1nc(C#CC2(O)CCCCC2)nc(OC)n1	16.3 µM
C[C@H](CCC(=O)O)[C@H]1CC[C@@]2(C)[C@@H]3C(=O)C[C@H]4C(C)(C)[C@@H](O)CC[C@]4(C)[C@H]3C(=O)C[C@]12C	> 100 µM

The molecules below were run on RPMI-8226 leukemia (assay: NCI anticancer screen, dose series, 48 h).

SMILES	TGI	GI50
CCOC(=O)C1=NN(c2ccc(C)cc2)C2=CC(C)=NN(C)C(=S)N21	> 100 µM	–
C(=N\NC1=NCCN1)/c1ccc(-c2cn3cc(/C=N/NC4=NCCN4)ccc3n2)cc1	> 100 µM	–
CC1CC[C@@]2(OC1)OC1C[C@H]3[C@@H]4CC=C5CC(OC6OC(CO)C(OC7OC(CO)C(O)C(OC8OCC(O)C(O)C8O)C7OC7OC(CO)C(O)C(O)C7O)C(O)C6O)CCC5(C)[C@H]4CCC3(C)C1[C@@H]2C (some centres undefined)	18.4 µM	–
Nc1ccccc1S(=O)(=O)c1ccccc1	> 100 µM	–
Cc1c(N2C(=O)CS(=O)(=O)C2c2cccc(Oc3ccccc3)c2)c(=O)n(-c2ccccc2)n1C (centres undefined)	74.4 µM	–
COc1cc2c(ccc3c4cc(OC)c(OC)cc4c[n+](C)c23)cc1O	> 75 µM	–
CNC(=O)OCc1c(CO)nc(SC)n1C	> 100 µM	–
CN(C)CC(CC1=C(CC(CN(C)C)N(C)C)CCC1)N(C)C (centres undefined)	> 100 µM	–
CC12CC3OC(=O)C1COC14OC5(C2C1=O)C(O)(CCC1C4CC(O)C2(O)CC=CC(=O)C12C)C(=O)OC35C (centres undefined)	> 100 µM	–
COc1ccc(C(=O)/C=C/c2cccc([N+](=O)[O-])c2)c(OC)c1	3.14 µM	1.09 µM
CCC(C)C1=C(OC(C)=O)[N+]2([O-])Oc3ccc(-c4c(OC(C)=O)c(OC(C)=O)c(-c5ccc(OC(C)=O)cc5)c(OC(C)=O)c4OC(C)=O)cc3OC2(C(C)CC)C(=O)N1OC(C)=O (centres undefined)	22.8 µM	–
O=C(O)C1C2CCC(O2)C1C(=O)Nc1cccc2cccnc12 (centres undefined)	> 100 µM	–
COc1cccc2c1Cc1cc(-c3ccccc3)[n+](C)n1-2	> 100 µM	–
O=C(OCN1C(=O)C2C3C=CC(C2C1=O)C1C2C(=O)N(COC(=O)C4CCCN4)C(=O)C2C31)C1CCCN1 (centres undefined)	54.1 µM	–
O=C(C[n+]1ccc2ccccc2c1)c1ccc2ccc3ccccc3c2c1	0.646 µM	–
NCCCCc1cc(O)c2c(c1O)C(=O)c1ccccc1C2=O	29.2 µM	–
Cc1ccccc1C(=O)N/N=C/c1ccc(Sc2nccn2C)c([N+](=O)[O-])c1	> 100 µM	–
CCn1c(-c2ccc(N=NNc3ccc(-c4n[nH]c(=S)n4CC)cc3)cc2)n[nH]c1=S	5.64 µM	–
CC(=O)C1=C(C)N(c2ccc(C)cc2)C2(O)C=CC(=O)C3C(=O)N(c4ccccc4)C(=O)C132 (centres undefined)	> 100 µM	–
COc1ccc2c(c1)[nH]c1c(/C=C/c3ccccc3)nccc12	93.5 µM	–
Clc1cc2c(cc1Cl)CC(NCCN1CCCC1)CC2 (centres undefined)	38.1 µM	–
[N-]=[N+]=CC(=O)c1ccccc1C#CCCc1ccccc1	50.2 µM	–
NCCSC(c1ccccc1)c1ccccc1	37.4 µM	–
COc1nc(C#CC2(O)CCCCC2)nc(OC)n1	10.5 µM	–
C[C@H](CCC(=O)O)[C@H]1CC[C@@]2(C)[C@@H]3C(=O)C[C@H]4C(C)(C)[C@@H](O)CC[C@]4(C)[C@H]3C(=O)C[C@]12C	> 100 µM	–

What follows are molecules tested on SF-539 CNS (assay: NCI anticancer screen, dose series, 48 h).

SMILES	TGI	GI50
CCOC(=O)C1=NN(c2ccc(C)cc2)C2=CC(C)=NN(C)C(=S)N21	> 100 µM	–
O=C(c1cccs1)N(C(=S)OC12CC3CC(CC(C3)C1)C2)c1ccccc1	> 100 µM	–
C(=N\NC1=NCCN1)/c1ccc(-c2cn3cc(/C=N/NC4=NCCN4)ccc3n2)cc1	> 100 µM	–
CC1CC[C@@]2(OC1)OC1C[C@H]3[C@@H]4CC=C5CC(OC6OC(CO)C(OC7OC(CO)C(O)C(OC8OCC(O)C(O)C8O)C7OC7OC(CO)C(O)C(O)C7O)C(O)C6O)CCC5(C)[C@H]4CCC3(C)C1[C@@H]2C (some centres undefined)	7.37 µM	–
Nc1ccccc1S(=O)(=O)c1ccccc1	> 100 µM	–
Cc1c(N2C(=O)CS(=O)(=O)C2c2cccc(Oc3ccccc3)c2)c(=O)n(-c2ccccc2)n1C (centres undefined)	> 100 µM	–
COc1cc2c(ccc3c4cc(OC)c(OC)cc4c[n+](C)c23)cc1O	28.7 µM	–
CNC(=O)OCc1c(CO)nc(SC)n1C	> 100 µM	–
CN(C)CC(CC1=C(CC(CN(C)C)N(C)C)CCC1)N(C)C (centres undefined)	> 100 µM	–
CCC1CN(C(=O)c2ccccc2)C(Cc2c[nH]c3ccccc23)C(=O)C1CC(=O)OC (centres undefined)	> 100 µM	–
CC12CC3OC(=O)C1COC14OC5(C2C1=O)C(O)(CCC1C4CC(O)C2(O)CC=CC(=O)C12C)C(=O)OC35C (centres undefined)	> 100 µM	–
O=c1cccccc1[O-].O=c1cccccc1[O-].[O]=[U+2]=[O]	43.1 µM	20.6 µM
COc1ccc(C(=O)/C=C/c2cccc([N+](=O)[O-])c2)c(OC)c1	3.09 µM	1.18 µM
CCOC(=O)C(NC(=O)c1ccco1)(Nc1nc2ccc(OCC)cc2s1)C(F)(F)F (centres undefined)	> 100 µM	–
CCC(C)C1=C(OC(C)=O)[N+]2([O-])Oc3ccc(-c4c(OC(C)=O)c(OC(C)=O)c(-c5ccc(OC(C)=O)cc5)c(OC(C)=O)c4OC(C)=O)cc3OC2(C(C)CC)C(=O)N1OC(C)=O (centres undefined)	> 50 µM	–
COc1cccc2c1Cc1cc(-c3ccccc3)[n+](C)n1-2	44.1 µM	–
O=C(OCN1C(=O)C2C3C=CC(C2C1=O)C1C2C(=O)N(COC(=O)C4CCCN4)C(=O)C2C31)C1CCCN1 (centres undefined)	> 100 µM	–
O=C(C[n+]1ccc2ccccc2c1)c1ccc2ccc3ccccc3c2c1	14.2 µM	–
NCCCCc1cc(O)c2c(c1O)C(=O)c1ccccc1C2=O	21.8 µM	–
Cc1ccccc1C(=O)N/N=C/c1ccc(Sc2nccn2C)c([N+](=O)[O-])c1	> 100 µM	–
CC(=O)C1=C(C)N(c2ccc(C)cc2)C2(O)C=CC(=O)C3C(=O)N(c4ccccc4)C(=O)C132 (centres undefined)	65.2 µM	–
COc1ccc2c(c1)[nH]c1c(/C=C/c3ccccc3)nccc12	32.3 µM	–
Clc1cc2c(cc1Cl)CC(NCCN1CCCC1)CC2 (centres undefined)	28 µM	–
[N-]=[N+]=CC(=O)c1ccccc1C#CCCc1ccccc1	> 100 µM	–
NCCSC(c1ccccc1)c1ccccc1	37.2 µM	–
CCCCCCCCC/C=C/C=C/C(=O)NCC(=O)NC1C(O)C(O)C(Nc2ncnc3nc[nH]c23)OC1C(O)CO (centres undefined)	0.103 µM	–
COc1nc(C#CC2(O)CCCCC2)nc(OC)n1	23.3 µM	–
C[C@H](CCC(=O)O)[C@H]1CC[C@@]2(C)[C@@H]3C(=O)C[C@H]4C(C)(C)[C@@H](O)CC[C@]4(C)[C@H]3C(=O)C[C@]12C	> 100 µM	–

What follows are molecules tested on MCF7 breast (assay: NCI anticancer screen, dose series, 48 h).

SMILES	TGI	GI50
O=C(c1cccs1)N(C(=S)OC12CC3CC(CC(C3)C1)C2)c1ccccc1	> 100 µM	–
C(=N\NC1=NCCN1)/c1ccc(-c2cn3cc(/C=N/NC4=NCCN4)ccc3n2)cc1	> 100 µM	–
CC1CC[C@@]2(OC1)OC1C[C@H]3[C@@H]4CC=C5CC(OC6OC(CO)C(OC7OC(CO)C(O)C(OC8OCC(O)C(O)C8O)C7OC7OC(CO)C(O)C(O)C7O)C(O)C6O)CCC5(C)[C@H]4CCC3(C)C1[C@@H]2C (some centres undefined)	14.6 µM	–
Cc1c(N2C(=O)CS(=O)(=O)C2c2cccc(Oc3ccccc3)c2)c(=O)n(-c2ccccc2)n1C (centres undefined)	> 100 µM	–
COc1cc2c(ccc3c4cc(OC)c(OC)cc4c[n+](C)c23)cc1O	> 75 µM	–
CNC(=O)OCc1c(CO)nc(SC)n1C	> 100 µM	–
CN(C)CC(CC1=C(CC(CN(C)C)N(C)C)CCC1)N(C)C (centres undefined)	> 100 µM	–
CCC1CN(C(=O)c2ccccc2)C(Cc2c[nH]c3ccccc23)C(=O)C1CC(=O)OC (centres undefined)	> 100 µM	–
CC12CC3OC(=O)C1COC14OC5(C2C1=O)C(O)(CCC1C4CC(O)C2(O)CC=CC(=O)C12C)C(=O)OC35C (centres undefined)	> 100 µM	–
NC(=O)c1c(NC(=O)c2ccccn2)sc2c1CCC(=O)C2	> 100 µM	2.37 µM
COc1ccc(C(=O)/C=C/c2cccc([N+](=O)[O-])c2)c(OC)c1	> 50 µM	1.37 µM
